{"source": "paper PMC3700763", "about": "“First human dose-escalation study with remogliflozin etabonate, a selective inhibitor of the sodium-glucose transporter 2 (SGLT2), in healthy subjects and in subjects with type 2 diabetes mellitus” (BMC Pharmacology & Toxicology, 2013)", "key": {"[1]": {"experiment": "Adverse events after single oral doses, T2DM subjects (Part B)", "type": "in vivo, human", "conditions": "for At least one adverse event: n = 6", "experimental": "This double-blind, randomized, placebo-controlled, single escalating-dose crossover study was conducted in two parts: Part A consisted of a randomized, dose-escalation in healthy subjects; Part B was of similar design, but conducted in subjects with T2DM and included an evaluation of pharmacodynamics using a 50 g oral glucose tolerance test (OGTT).\nSix subjects with T2DM received two doses of remogliflozin etabonate and a placebo dose, in a randomized, dose escalating, crossover design, along with an oral glucose load on three study sessions separated by 7–14 days. Full PK and safety profiles were measured on Day 1 of each dosing period. The doses selected for this portion of the study, 50 mg and 500 mg, were based on data obtained in Part A. In each dosing period, subjects were assigned to active vs placebo in a 2:1 ratio.\nAll subjects were admitted to the unit two nights prior to receiving study drug to establish baseline safety parameters and fluid intake levels over a 36 h period. Subjects remained in the unit for at least 24 h after doses were administered for monitoring of clinical laboratory parameters exploratory biomarkers, vital signs, ECGs and adverse events. While confined to the clinical research unit, all subjects received meals standardized with respect to calories, fat, protein, carbohydrate, and sodium content; however, detailed dietary information was not captured in this study. In Part A, subjects were dosed following an overnight fast; lunch and dinner were provided at 4 and 10 h after dosing, respectively. Fifteen minutes after dosing in each treatment period in Part B, a fasting OGTT was performed using 50 g glucose (administered as 50 g Glucola™). A 50 g glucose load was chosen since the OGTT was being performed in subjects already known to have diabetes. The glucose drink was consumed by subjects within approximately 5 minutes. Blood samples for the measurement of glucose, insulin, and intact glucagon-like peptide 1 (GLP-1) were collected for 24 hours following dose administration. Provided that there were no safety or tolerability concerns, subjects were released from the clinic on day 2 of each treatment period until their return for the next treatment or follow-up period. Each subject was involved in the study for approximately 8 weeks (from screening to follow-up)."}, "[2]": {"target": "T1, SGLT2 (Homo sapiens, UniProt P31639)", "T1 construct": "from tissue; host or cells: kidney (proximal tubule) of living human subjects: healthy volunteers and T2DM patients", "T1 sequence (P31639 1-672)": "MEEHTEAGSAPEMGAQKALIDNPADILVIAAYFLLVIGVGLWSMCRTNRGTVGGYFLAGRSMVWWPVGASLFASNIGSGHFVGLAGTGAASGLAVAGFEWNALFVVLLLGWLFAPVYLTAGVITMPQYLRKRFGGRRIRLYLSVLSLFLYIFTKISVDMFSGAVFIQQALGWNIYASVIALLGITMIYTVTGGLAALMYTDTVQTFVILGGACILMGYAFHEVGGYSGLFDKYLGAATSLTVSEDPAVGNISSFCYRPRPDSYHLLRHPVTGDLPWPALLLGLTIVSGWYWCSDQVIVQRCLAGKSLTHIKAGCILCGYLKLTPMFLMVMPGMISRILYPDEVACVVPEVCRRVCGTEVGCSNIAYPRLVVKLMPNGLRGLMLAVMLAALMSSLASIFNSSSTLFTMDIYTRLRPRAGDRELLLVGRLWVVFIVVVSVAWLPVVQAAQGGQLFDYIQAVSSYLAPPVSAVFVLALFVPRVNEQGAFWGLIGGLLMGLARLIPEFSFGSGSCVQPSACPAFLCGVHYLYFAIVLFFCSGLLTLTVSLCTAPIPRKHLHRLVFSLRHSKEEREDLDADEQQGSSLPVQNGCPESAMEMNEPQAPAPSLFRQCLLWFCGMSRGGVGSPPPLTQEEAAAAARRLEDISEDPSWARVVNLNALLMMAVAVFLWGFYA", "experiment": "24-h urine glucose excretion, T2DM subjects", "type": "in vivo", "conditions": "mean (SD)", "experimental": "Urine samples were collected at pre-dose, and over a series of intervals (0–2, 2–4, 4–6, 6–8, 8–12 and 12–24 h post-dose) for the analysis of creatinine, glucose and electrolytes (Na, K and Cl). All fluid intake was recorded, as well as urine volume, over the 24 hours before and after dosing in each treatment period. Urine was tested for protein on the first morning void of day -1 and 24 h after dosing.\nThe percentage of filtered glucose excreted in the urine for each individual time period was calculated as the amount of glucose excreted during that time period divided by (CLCR × PG × time interval length), where CLCR is the creatinine clearance for the time interval, PG is the plasma glucose concentration closest to the midpoint of the time interval, and the time interval is the period (min) of urine collection (CLCR × PG represents the glucose filtered load). For the 24-h period, the percentage of filtered glucose excreted was calculated as the amount of glucose excreted over 24 h divided by the sum over the individual time intervals of (CLCR × PG × time interval length)."}, "[3]": {"conditions": "mice; cited from earlier work"}}, "note": "Marks after values point to notes of the source that are not given here."}
{"smiles": "CCOC(=O)OC[C@H]1O[C@@H](Oc2nn(C(C)C)c(C)c2Cc2ccc(OC(C)C)cc2)[C@H](O)[C@@H](O)[C@@H]1O", "note": "[Remogliflozin etabonate, remogliflozin etabonate]", "values": [{"measurement": "Muscle cramp (adverse events reported by >1 subject in total)", "setting": "[1]; 50 mg single oral dose", "result": "1 (17) n (%)"}, {"measurement": "Nausea (drug-related adverse events)", "setting": "[1]; 50 mg single oral dose", "result": "0 n (%)"}, {"measurement": "Pain in extremity (drug-related adverse events)", "setting": "[1]; 50 mg single oral dose", "result": "0 n (%)"}, {"measurement": "β2-microglobulin increased (adverse events reported by >1 subject in total)", "setting": "[1]; 50 mg single oral dose", "result": "0 n (%)"}, {"measurement": "β2-microglobulin increased (drug-related adverse events)", "setting": "[1]; 50 mg single oral dose", "result": "0 n (%)"}, {"measurement": "At least one adverse event", "setting": "[1]; 50 mg single oral dose", "result": "1 (17) n (%)"}, {"measurement": "Muscle cramp (adverse events reported by >1 subject in total)", "setting": "[1]; 500 mg single oral dose", "result": "0 n (%)"}, {"measurement": "Nausea (drug-related adverse events)", "setting": "[1]; 500 mg single oral dose", "result": "1 (17) n (%)"}, {"measurement": "Pain in extremity (drug-related adverse events)", "setting": "[1]; 500 mg single oral dose", "result": "1 (17) n (%)"}, {"measurement": "β2-microglobulin increased (adverse events reported by >1 subject in total)", "setting": "[1]; 500 mg single oral dose", "result": "2 (33) n (%)"}, {"measurement": "β2-microglobulin increased (drug-related adverse events)", "setting": "[1]; 500 mg single oral dose", "result": "1 (17) n (%)"}, {"measurement": "At least one adverse event", "setting": "[1]; 500 mg single oral dose", "result": "2 (33) n (%)"}, {"measurement": "Urinary glucose excretion", "setting": "[2]; 50 mg single dose", "result": "384 (210) mmol"}, {"measurement": "Filtered glucose excreted in urine", "setting": "[2]; 50 mg single dose, n = 5", "result": "15.9 (5.9)^c %"}, {"measurement": "Filtered glucose excreted in urine", "setting": "[2]; 500 mg single dose", "result": "21.6 (9.1) %"}, {"measurement": "Urinary glucose excretion", "setting": "[2]; 500 mg single dose", "result": "642 (256) mmol"}, {"measurement": "Urinary glucose excretion", "setting": "[3]", "result": "concentration-dependent increase"}]}
